Experimental data as given in patent publication US12359259B2, “Biomarkers for predicting prostate cancer progression” (ACADEMIA SINICA, priority 2018, dated 2025).

Assays:
Format in all cases: cell-based
[1] = tested on: MYC and C1GALT1; test: Immunoblots of MYC and C1GALT1 levels under inhibitor treatment; settings: 22Rv1-M4 and galectin-4-expressing 22Rv1 and LNCaP cells; 24 h
Description: Data are expressed as mean±SEM. *P<0.05, **P<0.01, ***P<0.001 (unpaired t-test, two-tail).

[2] = tested on: LNCaP-tetO-Gal4 and 22Rv1-tetO-Gal4 cells; test: Lectin binding assay (flow cytometry) of cell surface glycans after glycosylation inhibitor treatment
Experimental: FIG. 8A to FIG. 8C show the characterization of glycophenotype in prostate cancer cells. FIG. 8A and FIG. 8B show lectin binding assay of LNCaP-tetO-Gal4 (A) and 22Rv1-tetO-Gal4 (B) cells treated with 3 μM Swainsonine or 4 mM Benzyl-α-GalNAc for 2 day following galectin-4 induction by doxycycline. […] Below, the mean fluorescence intensity (MFI) values from triplicates. Data are expressed as mean±SEM. *P<0.05, **P<0.01, ***P<0.001 (unpaired t-test, two-tail).
To profile cell surface glycans, cells were detached by Accutase (Innovative Cell Technologies, San Diego, CA) treatment, washed with PBS for three times, and suspended in Carbo-Free Blocking Solution (VECTOR, Burlingame, CA). Cells were incubated with biotin-conjugated lectins, PHA-L (2 μg/mL), PNA (10 μg/mL), MALII (5 μg/mL), Jacalin (5 μg/mL, VECTOR), and galectin-4 (5 μg/mL), or BSA as a control followed by APC-labeled streptavidin. After incubation for 30 min on ice, cells were analyzed on an Accuri C6 flow cytometer (BD Biosciences, Taiwan). Galectin-4 (R&D Systems, Minneapolis, MN) and BSA were biotinylated using Lightning-Link Rapid Conjugation System (Innova Biosciences, Cambridge, UK) following the manufacturer's instructions.

[3] = tested on: HER2/3 phosphorylation, AR, and PSA expression; test: Immunoblots of HER2/3 phosphorylation, AR and PSA expression after galectin-4 induction
[4] = tested on: SOX9 expression; test: Immunoblots of SOX9 expression in 22Rv1-M4 cells; settings: 3 μM Swainsonine or 4 mM Benzyl-α-GalNAc for 2 days
[5] = tested on: LNCaP-CR4 cells; test: Colony-formation assay under enzalutamide treatment; settings: LNCaP-CR4 vs LNCaP; 10 days
[6] = 4 mM Benzyl-α-GalNAc for 2 day, PCa cells

## N#CC(=C(N)Sc1ccc(N)cc1)c1ccccc1C(F)(F)F [MEK1/2 inhibitor]
[1]
  induction of MYC and C1GALT1 compared to vehicle treatment: blocked

## O[C@H]1[C@H]2[C@H](O)CCCN2C[C@H]1O [swainsonine]
[2]; 3 μM Swainsonine for 2 day following doxycycline-mediated galectin-4 induction, LNCaP and 22Rv1 cells
  PHA-L staining for N-glycans: decreased
[3]; 3 μM Swainsonine for 2 day, galectin-4 expressing LNCaP and 22Rv1 cells
  HER2/3 phosphorylation and induction of AR and PSA protein expression: did not affect
[4]
  SOX9 expression: did not affect

## CNC(=O)c1ccc(N2C(=S)N(c3ccc(C#N)c(C(F)(F)F)c3)C(=O)C2(C)C)cc1F [enzalutamide]
[5]
  clonogenic growth of LNCaP-CR4 cells under enzalutamide: resistance

## CC(=O)N[C@H]1[C@@H](OCc2ccccc2)O[C@H](CO)[C@H](O)[C@@H]1O [benzyl-α-GalNAc]
[2]; [6]
  binding of treated cells to MALII: reduced
  binding of treated cells to PNA: increased
[2]; PCa cells
  biosynthesis of α2,3-sialyl-T antigen: significantly impaired
[3]; 4 mM Benzyl-α-GalNAc for 2 day, galectin-4 expressing LNCaP and 22Rv1 cells
  galectin-4-mediated activation of HER2/3 and AR signaling: blocked
[3]; PCa cells
  galectin-4 activity: suppressed
[4]
  SOX9 expression: significantly inhibited
